# Reference: patent US20250041415A1, “CYTOTOXIC INNATE LYMPHOID CELL AND USES THEREOF” (Umoja Biopharma, Inc., priority 2021, published 2025)
# Legend:
# [1] = system: iPSC-derived lymphoid progenitor and precursor cells; test: RACR-driven differentiation and expansion of iCIL cells from Day 26 lymphoid progenitors; assay type: cell-based, human; details: AP21967 100 nM, no other cytokine
# Text: The RACR-system was utilized for differentiation to iPSC-derived CIL cells (iCIL cells). The iPSC cell line ATCC-BXS0117 (ATCC #ACS-1031) was differentiated into lymphoid progenitors through the STEMdiff NK cell kit ([…]® Technologies, #100-0170) as described in Example 2 above, up until the Day 26 timepoint. The percentage of cells containing common lymphoid progenitors (CD45+/CD5+/CD7+), CIL precursors (CD45+/CD5−/CD7+), and early CIL cells (CD45+/CD5−/CD7+/CD56+) is seen in FIG. 3D with ˜50% of the cells presenting as CIL precursors and ˜25% of total cells presenting as early CIL cells. […] Activation beads (#130-094-483) were added to cells at a 2:1 ratio and cells were placed in 37° C. incubator overnight to increase transduction of cells.
# The cells were engineered with a polynucleotide encoding the RACR synthetic cytokine as described in Example 1, a Tag (anti-FITC) CAR (SEQ ID NO: 13), and an FRB domain for expression of FRB as a diffusible soluble protein in the engineered cell, in which the components were separated by a cleavable linker. The polynucleotide construct payload is designated Tag (anti-FITC) CAR-P2A-FRB-P2A-RACR. […] An aliquot of cells was collected weekly, counted on the Vicell Blu automated cell counter, and stained for CD16 clone 3G8, CD56 clone HCD56, CD45 clone 2D1. […]
# [2] = system: common lymphoid progenitors (iPSC line WTC11); test: RACR-signaling replacing common gamma chain cytokines in CLP to CIL differentiation; assay type: cell-based, human; details: 4 nM
# [3] = system: Vδ2+ T cells transduced with RACR-FRB-mCherry; test: RACR-expansion of blood-derived Vδ2+ T cells; assay type: cell-based, human; details: 10 nM, days 14 and 21
# Description: On day 14, an aliquot of the cells was collected and washed, stained for V32, and RACR transduction was measured by mCherry. Percent Vδ2+ RACR+ cells, as well as number of transduced V32+ cells measured by counting beads was assessed by detection of V82 stain and mCherry via flow cytometry. Similarly, on day 21, an aliquot of cells was again measured for percent and number of Vδ2+ RACR+ cells via flow cytometry.
# [4] = system: PSMA-positive human prostate cancer cells; details: DUPA-(99m)Tc; cited from earlier work
SMILES,expansion (total number of TagCAR positive cells) [1],"percent of RACR-CAR+ CD56+ cells ([2]; Day 40, all four media conditions)",fold change in RACR-CAR+ cells ([2]; media with UM729 alone (None)),percentage and total number of Vδ2+ RACR+ cells [3],Kd [4] [µM]
CO[C@@H]1C[C@H](C[C@@H](C)C2CC(=O)[C@H](C)/C=C(\C)[C@@H](O)[C@@H](OC)C(=O)[C@H](C)C[C@@H](C)/C=C/C=C/C=C(\C)[C@H](c3c[nH]c4c(C)cccc34)C[C@H]3CC[C@@H](C)[C@@](O)(O3)C(=O)C(=O)N3CCCC[C@H]3C(=O)O2)CC[C@@H]1O (some centres unmarked) [AP21967],sufficient to drive iCIL expansion,increase in the percent of RACR-CAR+ CD56+ cells,largest fold change,increased in both percentage and total number of cells,
O=C(O)CC[C@H](NC(=O)N[C@@H](CCC(=O)O)C(=O)O)C(=O)O [DUPA],,,,,0.014
